Data reported in patent US8952024B2, “Herbicidal pyrimidone derivatives” (E I du Pont de Nemours and Company, priority 2009, dated 2015).

Key:
Format in all cases: in vivo
[1] = tested on: bluegrass (annual bluegrass, Poa annua); experiment: Test C plant response; conditions: Preemergence, scale 0 to 100
[2] = tested on: field poppy (Papaver rhoeas); experiment: Test C plant response; conditions: Preemergence, scale 0 to 100
[3] = tested on: Italian ryegrass (Lolium multiflorum); experiment: Test C plant response; conditions: Preemergence, scale 0 to 100
[4] = tested on: Russian thistle (Salsola iberica); experiment: Test C plant response; conditions: Preemergence, scale 0 to 100
[5] = tested on: winter barley (Hordeum vulgare); experiment: Test C plant response; conditions: Preemergence, scale 0 to 100
[6] = tested on: barnyardgrass (Echinochloa crus-galli); experiment: Test E flooded paddy rice and weeds; conditions: applied to paddy water, 21 days
Source text: (§1) Three plastic pots (ca. 16-cm diameter) for each application were partially filled with sterilized Tama silt loam soil comprising a 35:50:15 ratio of sand, silt and clay and 2.6% organic matter. Separate plantings for each of the three pots were as follows. Seeds from the U.S. of ducksalad (Heteranthera limosa), sedge (smallflower umbrella sedge, Cyperus difformis), ricefield bulrush (Scirpus mucronatus) and redstem (purple redstem, Ammannia coccinea), were planted into one 16-cm pot for each rate. Seeds from the U.S. of flatsedge (rice flatsedge, Cyperus iria), sprangletop (bearded (i.e. Brdd.) sprangletop, Leptochloa fascicularis), one stand of 9 or 10 water seeded rice seedlings (Oryza sativa cv. ‘Japonica—M202’), and two stands of 3 or 4 transplanted rice seedlings (Oryza sativa cv. ‘Japonica—M202’) were planted into one 16-cm pot for each rate. Seeds from the U.S. of barnyardgrass (Echinochloa crus-galli), late watergrass (Echinochloa oryzicola), early watergrass (Echinochloa oryzoides) and junglerice (Echinochloa colona) were planted into one 16-cm pot for each rate. Plantings were sequential so that crop and weed species were at the 2.0 to 2.5-leaf stage at time of treatment.
(§2) Potted plants were grown in a greenhouse with day/night temperature settings of 30/27° C., and supplemental balanced lighting was provided to maintain a 16-hour photoperiod. Test pots were maintained in the greenhouse until test completion.
(§3) At time of treatment, test pots were flooded to 3 cm above the soil surface, treated by application of test compounds directly to the paddy water, and then maintained at that water depth for the duration of the test. Effects of treatments on rice and weeds were visually evaluated by comparison to untreated controls after 21 days. Plant response ratings, summarized in Table E, are based on a scale of 0 to 100 where 0 is no effect and 100 is complete control. A dash (-) response means no test result.

[7] = tested on: ducksalad (Heteranthera limosa); experiment: Test E flooded paddy rice and weeds; conditions: applied to paddy water, 21 days, scale 0 to 100
Source text: as §1, §2, §3

[8] = tested on: early watergrass (Echinochloa oryzoides); experiment: Test E flooded paddy rice and weeds; conditions: applied to paddy water, 21 days, scale 0 to 100
Source text: as §1, §2, §3

[9] = tested on: flatsedge (rice flatsedge, Cyperus iria); experiment: Test E flooded paddy rice and weeds; conditions: applied to paddy water, 21 days, scale 0 to 100
Source text: as §1, §2, §3

[10] = tested on: junglerice (Echinochloa colona); experiment: Test E flooded paddy rice and weeds; conditions: applied to paddy water, 21 days, scale 0 to 100
Source text: as §1, §2, §3

[11] = tested on: late watergrass (Echinochloa oryzicola); experiment: Test E flooded paddy rice and weeds; conditions: applied to paddy water, 21 days, scale 0 to 100
Source text: as §1, §2, §3

[12] = tested on: redstem (purple redstem, Ammannia coccinea); experiment: Test E flooded paddy rice and weeds; conditions: applied to paddy water, 21 days, scale 0 to 100
Source text: as §1, §2, §3

[13] = tested on: ricefield bulrush (Scirpus mucronatus); experiment: Test E flooded paddy rice and weeds; conditions: applied to paddy water, 21 days, scale 0 to 100
Source text: as §1, §2, §3

[14] = tested on: sedge (smallflower umbrella sedge, Cyperus difformis); experiment: Test E flooded paddy rice and weeds; conditions: applied to paddy water, 21 days, scale 0 to 100
Source text: as §1, §2, §3

[15] = tested on: sprangletop (bearded (i.e. Brdd.) sprangletop, Leptochloa fascicularis); experiment: Test E flooded paddy rice and weeds; conditions: applied to paddy water, 21 days, scale 0 to 100
Source text: as §1, §2, §3

[16] = tested on: transplanted rice seedlings (Oryza sativa cv. ‘Japonica—M202’); experiment: Test E flooded paddy rice and weeds; conditions: applied to paddy water, 21 days, scale 0 to 100
Source text: as §1, §2, §3

[17] = tested on: water seeded rice seedlings (Oryza sativa cv. ‘Japonica—M202’); experiment: Test E flooded paddy rice and weeds; conditions: applied to paddy water, 21 days, scale 0 to 100
Source text: as §1, §2, §3

## O=C1CCCC(O)=C1C(=O)c1cnc(-c2ccccc2)n(-c2ccccc2)c1=O [Compound 2, 5-[(2-hydroxy-6-oxo-1-cyclohexen-1-yl)carbonyl]-2,3-diphenyl-4(3H)-pyrimidinone]
[1]; 62 g ai/ha
  Plant response rating: Bluegrass: 0
[1]; 125 g ai/ha
  Plant response rating: Bluegrass: 0
[1]; 16 g ai/ha
  Plant response rating: Bluegrass: 0
[1]; 31 g ai/ha
  Plant response rating: Bluegrass: 0
[2]; 62 g ai/ha
  Plant response rating: Field Poppy: 95
[2]; 125 g ai/ha
  Plant response rating: Field Poppy: 100
[2]; 31 g ai/ha
  Plant response rating: Field Poppy: 75
[3]; 62 g ai/ha
  Plant response rating: Ryegrass, Italian: 0
[3]; 125 g ai/ha
  Plant response rating: Ryegrass, Italian: 0
[3]; 16 g ai/ha
  Plant response rating: Ryegrass, Italian: 0
[3]; 31 g ai/ha
  Plant response rating: Ryegrass, Italian: 0
[4]; 62 g ai/ha
  Plant response rating: Russian Thistle: 0
[4]; 16 g ai/ha
  Plant response rating: Russian Thistle: 0
[4]; 31 g ai/ha
  Plant response rating: Russian Thistle: 0
[5]; 62 g ai/ha
  Plant response rating: Barley, Winter: 0
[5]; 125 g ai/ha
  Plant response rating: Barley, Winter: 0
[5]; 16 g ai/ha
  Plant response rating: Barley, Winter: 0
[5]; 31 g ai/ha
  Plant response rating: Barley, Winter: 0

## COc1cccc(-n2c(-c3ccccc3)ncc(C(=O)C3=C(O)CCCC3=O)c2=O)c1 [Compound 19]
[6]; 64 g ai/ha, scale 0 to 100
  Plant response rating, Barnyardgrass, Flood: 60
[6]; 125 g ai/ha, scale 0 to 100
  Plant response rating, Barnyardgrass, Flood: 60
[6]; 250 g ai/ha, scale 0 to 100
  Plant response rating, Barnyardgrass, Flood: 70
[6]; 500 g ai/ha, scale 0 to 100 (0 no effect, 100 complete control)
  Plant response rating, Barnyardgrass, Flood: 85
[7]; 64 g ai/ha
  Plant response rating, Ducksalad, Flood: 85
[7]; 125 g ai/ha
  Plant response rating, Ducksalad, Flood: 95
[7]; 250 g ai/ha
  Plant response rating, Ducksalad, Flood: 100
[7]; 500 g ai/ha
  Plant response rating, Ducksalad, Flood: 100
[8]; 64 g ai/ha
  Plant response rating, Watergrass, Early, Flood: 20
[8]; 125 g ai/ha
  Plant response rating, Watergrass, Early, Flood: 45
[8]; 250 g ai/ha
  Plant response rating, Watergrass, Early, Flood: 65
[8]; 500 g ai/ha
  Plant response rating, Watergrass, Early, Flood: 85
[9]; 64 g ai/ha
  Plant response rating, Flatsedge, Rice, Flood: 40
[9]; 125 g ai/ha
  Plant response rating, Flatsedge, Rice, Flood: 40
[9]; 250 g ai/ha
  Plant response rating, Flatsedge, Rice, Flood: 95
[9]; 500 g ai/ha
  Plant response rating, Flatsedge, Rice, Flood: 100
[10]; 64 g ai/ha
  Plant response rating, Junglerice, Flood: 0
[10]; 125 g ai/ha
  Plant response rating, Junglerice, Flood: 50
[10]; 250 g ai/ha
  Plant response rating, Junglerice, Flood: 65
[10]; 500 g ai/ha
  Plant response rating, Junglerice, Flood: 80
[11]; 64 g ai/ha
  Plant response rating, Watergrass, Late, Flood: 0
[11]; 125 g ai/ha
  Plant response rating, Watergrass, Late, Flood: 45
[11]; 250 g ai/ha
  Plant response rating, Watergrass, Late, Flood: 60
[11]; 500 g ai/ha
  Plant response rating, Watergrass, Late, Flood: 55
[12]; 64 g ai/ha
  Plant response rating, Redstem, Flood: 0
[12]; 125 g ai/ha
  Plant response rating, Redstem, Flood: 90
[12]; 250 g ai/ha
  Plant response rating, Redstem, Flood: 90
[12]; 500 g ai/ha
  Plant response rating, Redstem, Flood: 85
[13]; 64 g ai/ha
  Plant response rating, Bulrush, Ricefield, Flood: 50
[13]; 125 g ai/ha
  Plant response rating, Bulrush, Ricefield, Flood: 70
[13]; 250 g ai/ha
  Plant response rating, Bulrush, Ricefield, Flood: 70
[13]; 500 g ai/ha
  Plant response rating, Bulrush, Ricefield, Flood: 75
[14]; 64 g ai/ha
  Plant response rating, Sedge, Umbrella, Flood: 90
[14]; 125 g ai/ha
  Plant response rating, Sedge, Umbrella, Flood: 100
[14]; 250 g ai/ha
  Plant response rating, Sedge, Umbrella, Flood: 100
[14]; 500 g ai/ha
  Plant response rating, Sedge, Umbrella, Flood: 100
[15]; 64 g ai/ha
  Plant response rating, Sprangletop, Brdd., Flood: 75
[15]; 125 g ai/ha
  Plant response rating, Sprangletop, Brdd., Flood: 95
[15]; 250 g ai/ha
  Plant response rating, Sprangletop, Brdd., Flood: 100
[15]; 500 g ai/ha
  Plant response rating, Sprangletop, Brdd., Flood: 100
[16]; 64 g ai/ha
  Plant response rating, Rice, Transplanted, Flood: 0
[16]; 125 g ai/ha
  Plant response rating, Rice, Transplanted, Flood: 35
[16]; 250 g ai/ha
  Plant response rating, Rice, Transplanted, Flood: 40
[16]; 500 g ai/ha
  Plant response rating, Rice, Transplanted, Flood: 65
[17]; 64 g ai/ha
  Plant response rating, Rice, Water Seeded, Flood: 0
[17]; 125 g ai/ha
  Plant response rating, Rice, Water Seeded, Flood: 40
[17]; 250 g ai/ha
  Plant response rating, Rice, Water Seeded, Flood: 70
[17]; 500 g ai/ha
  Plant response rating, Rice, Water Seeded, Flood: 95
